Measurements as given in US20240219403A1, “METHODS FOR INHIBITING KRAS ONCOPROTEIN THROUGH ENHANCED GTPASE ACTIVITY” (Memorial Sloan-Kettering Cancer Center, priority 2021, published 2024).

Legend:
KRAS^G12C [1] = molecular target: T1, KRAS^G12C (Homo sapiens, UniProt P01116, G12C); experiment: RAS-binding domain (RBD) pulldown of active (GTP-bound) KRAS in KRAS^G12C-mutant cell lines treated with G12C inhibitors; type: cell-based
T1 construct: endogenous in cells; host or cells: H358, H2122, H2030, SW1573 (KRAS G12C-mutant lung cancer lines, ATCC)
Description: This was performed as described previously (42) by using the RAS activation kit (Thermo Scientific). Briefly, 50 μg whole cell lysates were incubated with 40 μg GST-RBD and 100 μL glutathione beads for 60 min followed by three washes in NP40 wash buffer and elution of pull-down fractions with 2×SDS PAGE loading dye. The samples were then subjected to western blotting with a KRAS specific (WH0003845M1) antibody (43).

KRAS^G12C [2] = molecular target: T1, KRAS^G12C; experiment: GTPase assays of purified GTP-loaded KRAS^G12C incubated with GAP proteins (γ-phosphate, α-phosphate, continuous phosphate release); type: biochemical
Description: GTP[γ^32P] hydrolysis assay. KRAS proteins (0.5 μg) were reacted with 0.04 μM GTP[γ^32P] (6000 Ci/mmol; PerkinElmer Life Sciences) in 100 μL loading buffer (50 mM HEPES, pH 7.5, 50 mM NaCl, 1 mM DTT, 0.1 mM EGTA, 10 mM EDTA, and 1 mg/mL BSA) for 10 min at 30° C. (5, 40). Loading reactions were stopped by placing on ice and adding MgCl2 to a final concentration of 20 mM. The GTPase assays were performed at 30° C. in 100 μL mixtures containing 20 nM of loaded KRAS and either hydrolysis buffer (25 mM HEPES pH 7.5, 50 mM NaCl, 1 mM DTT, 1 mM MgCl2 and 1 mg/mL BSA) alone, or in combination with WCE or purified RGS3 (0.08-0.4 μg/μL). Equimolar comparisons of NF1, RASA1 and RGS3 were carried out using the continuous hydrolysis assay (see below). Reactions were stopped at the indicated time by filtering through 0.45-μm nitrocellulose membrane filters. The filters were washed 3 times with 0.2 mL of ice-cold hydrolysis buffer, air dried, and processed by autoradiography. Reaction rates were determined by fitting an exponential curve to the data, which was normalized to the baseline value. […]
Continuous hydrolysis assay (two-step detection of inorganic phosphate). […] The reaction was monitored by reading the absorbance at 360 nm every 10 to 20 s for ˜16-60 min at room temperature. […]

Compound	time required for maximal inhibition of KRAS in cells (KRAS^G12C [1]; media with 10% serum) [min]	time required for maximal inhibition of KRAS in cells (KRAS^G12C [1]; serum-deprived media (suppresses nucleotide exchange)) [min]	RGS3-assisted hydrolysis by KRAS^G12C slower than NF1-stimulated hydrolysis by KRAS^WT (KRAS^G12C [2])	effect on GTP-hydrolysis by KRAS^G12C (KRAS^G12C [2]; purified proteins)
C=CC(=O)N1CCN(c2nc(OC[C@@H]3CCCN3C)nc3c2CCN(c2cccc4cccc(C)c24)C3)C[C@@H]1CC#N [MRTX1257]	~60	~20	–	–
RGS3: regulator of G protein signaling 3, recombinant p75/p25 variants; GAP for Gαi/q subunit	–	–	1-2 orders of magnitude	enhanced GTP-hydrolysis
